Measured values: patent US20090209585A1, “CYCLOALKENE DERIVATIVES, PROCESS FOR PRODUCTION OF THE DERIVATIVES, AND USE OF THE SAME” (priority 2006, published 2009)
Converted amounts (≈) assume the structure as drawn. Where a name gives a salt, the structure may show the parent alone.

How the values were obtained:
[1] = Solubility according to Japanese Pharmacopoeia general notices, analyzed by HPLC; type: physicochemical; conditions: thermodynamic from solid, treated according to Japanese Pharmacopoeia
Protocol: The compounds of Examples 9, 12 and 15 were measured and placed in a glass container by 1 mg each, saline was added in small portions, and the mixture was stirred. The solubility was visually observed. In addition, as a conventional compound having a nitric oxide (NO) production inhibitory effect and an inflammatory cytokine production inhibitory effect, ethyl 6-[N-(2-chloro-4-fluorophenyl)sulfamoyl]cyclohex-1-ene-1-carboxylate (indicated as conventional compound in Table 1) was treated according to the Japanese Pharmacopoeia, general notices, and analyzed by HPLC to determined the solubility.

[2] = system: Female BALB/c mice inoculated with LPS; assay: Evaluation of efficacy in mouse endotoxin shock model; type: in vivo; conditions: 10 mg/kg intravenously in saline, 1 hr before LPS 5 mg/kg intraperitoneally; survival at 5 days from LPS inoculation; 7 mice per group
Protocol: Female BALB/c mice (6-week-old) were purchased and, after preliminary rearing for 1 week, divided into groups (7 per group). The compound of Example 3 was dissolved in saline immediately before administration, and intravenously administered at 10 mg/kg. For the control group, a solvent was administered in the same manner. One hour later, LPS (5 mg/kg) was intraperitoneally inoculated, and the survival of the mice was observed. The efficacy was evaluated based on the survival rate at 5 days from LPS inoculation.

physchem = conditions: saline, saline or isotonic

Row | solubility (physchem) | Compound | also measured
1 |  | CCOC(=O)C1=CCCCC1S(=O)(=O)Nc1ccc(F)cc1Cl (stereo not shown) [Conventional compound, ethyl 6-[N-(2-chloro-4-fluorophenyl)sulfamoyl]cyclohex-1-ene-1-carboxylate] | solubility [1]: 10 µg/mL (≈ 27.6 µM)
2 |  | CCOC(=O)C1=CCCCC1S(=O)(=O)N(COC(=O)OCCCC(=O)O)c1ccc(F)cc1Cl (stereo not shown) [Example 3, sodium 4-({[((2-chloro-4-fluorophenyl){[2-(ethoxycarbonyl)cyclohex-2-en-1-yl]sulfonyl}amino)methoxy]carbonyl}oxy)butanoate] | number of survived mice (N = 7) [2]: 6
3 | ≥ 1000 µg/mL | CCOC(=O)C1=CCCCC1S(=O)(=O)N(Cc1cc(C)c(OC(=O)CNC)c(C)c1)c1ccc(F)cc1Cl (stereo not shown) [Example 21, ethyl 6-[((2-chloro-4-fluorophenyl){3,5-dimethyl-4-[(N-methylglycyl)oxy]benzyl}amino)sulfonyl]cyclohex-1-ene-1-carboxylate hydrochloride] | 
4 | ≥ 1000 µg/mL | CCOC(=O)C1=CCCCC1S(=O)(=O)N(Cc1cc(C)c(OC(=O)[C@@H]2CCCN2)c(C)c1)c1ccc(F)cc1Cl (stereo partly drawn) [Example 23, 4-[((2-chloro-4-fluorophenyl){[2-(ethoxycarbonyl)cyclohex-2-en-1-yl]sulfonyl}amino)methyl]-2,6-dimethylphenyl L-prolinate] | 
